Experimental data published in ChEMBL document CHEMBL3044912, “Nematicidal efficacy of isothiocyanates against root-knot nematode Meloidogyne javanica in cucumber” (2011).
In brackets after ≈: the same amount, converted by molar mass. Activity calls are given as the source filed them. The rule behind the calls is not given here.

test system: Meloidogyne javanica; experiment: Nematicidal activity against Meloidogyne javanica (root-knot nematode) infected in cucumber field assessed as reduction in root gallling at 2 kg/ha by field plot experiment; type: functional, organism-based; conditions: not given

Row | Compound | inhibition
1 | C=CC(=O)N=C=S [ACRYLOYL ISOTHIOCYANATE] | Active
2 | C=CCN=C=S [ALLYL ISOTHIOCYANATE] | Active

test system: Meloidogyne javanica; experiment: Nematicidal activity against Meloidogyne javanica (root-knot nematode) infected in cucumber field assessed as reduction in root gallling at 5 kg/ha by field plot experiment; type: functional, organism-based; conditions: not given

Row | Compound | inhibition
3 | CNC(=S)[S-].[Na+] [METAM SODIUM] | Active

test system: Meloidogyne javanica; experiment: Nematicidal activity against Meloidogyne javanica (root-knot nematode) inoculated in cucumber plant assessed as reduction in galls at 0.5 ml/kg of soil dosed 7 days before planting by pot experiment; type: functional, organism-based; conditions: not given

Row | Compound | Activity
4 | C=CC(=O)N=C=S [ACRYLOYL ISOTHIOCYANATE] | Active
5 | C=CCN=C=S [ALLYL ISOTHIOCYANATE] | Active

test system: Meloidogyne javanica; experiment: Nematicidal activity against Meloidogyne javanica (root-knot nematode) inoculated in cucumber plant assessed as reduction in galls compound treated in soil 7 days before planting by pot experiment; type: functional; conditions: not given

Row | Compound | LD50 [mL]
6 | C=CC(=O)N=C=S [ACRYLOYL ISOTHIOCYANATE] | 0.48
7 | C=CCN=C=S [ALLYL ISOTHIOCYANATE] | 0.49

test system: Meloidogyne javanica; experiment: Nematicidal activity against Meloidogyne javanica J2 (root-knot nematode) assessed as mortality rate at 5 ug/mL (vapor concentration in the air, weight/volume) at 25 +/- 2 degC measured after 72 hr; type: functional; conditions: not given

Row | Compound | mortality at 5 µg/mL [%]
8 | CC(N=C=S)c1ccccc1 (centres undefined) [1-PHENYLETHYL ISOTHIOCYANATE] | 76.6
9 | C=CC(=O)N=C=S [ACRYLOYL ISOTHIOCYANATE] | 92.1
10 | C=CCN=C=S [ALLYL ISOTHIOCYANATE] | 90.5
11 | S=C=NCc1ccccc1 [BENZYL ISOTHIOCYANATE] | 70.2
12 | N#CSCc1ccccc1 [BENZYL THIOCYANATE] | 66.4
13 | CC/C=C/N=C=S [BUTENYL ISOTHIOCYANATE] | 49.9
14 | CCCCN=C=S [BUTYL ISOTHIOCYANATE] | 58.6
15 | CCN=C=S [ETHYL ISOTHIOCYANATE] | 88.2
16 | CC(C)/C=C/N=C=S [ISOAMYLENE ISOTHIOCYANATE] | 56.9
17 | CC(C)N=C=S [ISOPROPYL ISOTHIOCYANATE] | 42.9
18 | CC(C)CC(=O)N=C=S [ISOVALERYL ISOTHIOCYANATE] | 58.5
19 | CNC(=S)[S-].[Na+] [METAM SODIUM] | 93.4
20 | S=C=NCCc1ccccc1 [PHENETHYLISOTHIOCYANATE] | 79.6
21 | S=C=Nc1ccccc1 [PHENYLISOTHIOCYANATE] | 58.2
22 | CCCN=C=S [PROPYL ISOTHIOCYANATE] | 40.2

test system: Meloidogyne javanica; experiment: Nematicidal activity against Meloidogyne javanica (root-knot nematode) inoculated in cucumber plant assessed as reduction in galls at 2 ml/kg of soil dosed 7 days before planting by pot experiment; type: functional, organism-based; conditions: not given

Row | Compound | Activity
23 | C=CC(=O)N=C=S [ACRYLOYL ISOTHIOCYANATE] | Active
24 | C=CCN=C=S [ALLYL ISOTHIOCYANATE] | Active

test system: Meloidogyne javanica; experiment: Nematicidal activity against Meloidogyne javanica J2 (root-knot nematode) assessed as mortality rate compound treated as vapor at 25 +/- 2 degC; type: functional; conditions: not given

Row | Compound | LC90 [µg/mL]
25 | CC(N=C=S)c1ccccc1 (centres undefined) [1-PHENYLETHYL ISOTHIOCYANATE] | 8.14 (≈ 49.9 µM)
26 | C=CC(=O)N=C=S [ACRYLOYL ISOTHIOCYANATE] | 4.63 (≈ 40.9 µM)
27 | C=CCN=C=S [ALLYL ISOTHIOCYANATE] | 4.94 (≈ 49.8 µM)
28 | S=C=NCc1ccccc1 [BENZYL ISOTHIOCYANATE] | 8.55 (≈ 57.3 µM)
29 | N#CSCc1ccccc1 [BENZYL THIOCYANATE] | 8.71 (≈ 58.4 µM)
30 | CCN=C=S [ETHYL ISOTHIOCYANATE] | 5.72 (≈ 65.6 µM)
31 | CNC(=S)[S-].[Na+] [METAM SODIUM] | 3.65
32 | S=C=NCCc1ccccc1 [PHENETHYLISOTHIOCYANATE] | 6.96 (≈ 42.6 µM)

same assay, conditions: Meloidogyne javanica

Row | Compound | LC50 [µg/mL]
33 | CC(N=C=S)c1ccccc1 (centres undefined) [1-PHENYLETHYL ISOTHIOCYANATE] | 4.24 (≈ 26 µM)
34 | C=CC(=O)N=C=S [ACRYLOYL ISOTHIOCYANATE] | 2.53 (≈ 22.4 µM)
35 | C=CCN=C=S [ALLYL ISOTHIOCYANATE] | 2.76 (≈ 27.8 µM)
36 | S=C=NCc1ccccc1 [BENZYL ISOTHIOCYANATE] | 4.48 (≈ 30 µM)
37 | N#CSCc1ccccc1 [BENZYL THIOCYANATE] | 4.64 (≈ 31.1 µM)
38 | CCN=C=S [ETHYL ISOTHIOCYANATE] | 3.05 (≈ 35 µM)
39 | CNC(=S)[S-].[Na+] [METAM SODIUM] | 2.12
40 | S=C=NCCc1ccccc1 [PHENETHYLISOTHIOCYANATE] | 4.15 (≈ 25.4 µM)

test system: Meloidogyne javanica; experiment: Nematicidal activity against Meloidogyne javanica (root-knot nematode) inoculated in cucumber plant assessed as reduction in galls at 1 ml/kg of soil dosed 7 days before planting by pot experiment; type: functional, organism-based; conditions: not given

Row | Compound | Activity
41 | C=CC(=O)N=C=S [ACRYLOYL ISOTHIOCYANATE] | Active
42 | C=CCN=C=S [ALLYL ISOTHIOCYANATE] | Active

test system: Meloidogyne javanica; experiment: Nematicidal activity against Meloidogyne javanica J2 (root-knot nematode) assessed as mortality rate at 5 ug/mL (vapor concentration in the air, weight/volume) at 25 +/- 2 degC measured after 48 hr; type: functional; conditions: not given

Row | Compound | mortality at 5 µg/mL [%]
43 | CC(N=C=S)c1ccccc1 (centres undefined) [1-PHENYLETHYL ISOTHIOCYANATE] | 58.6
44 | C=CC(=O)N=C=S [ACRYLOYL ISOTHIOCYANATE] | 71
45 | C=CCN=C=S [ALLYL ISOTHIOCYANATE] | 70.1
46 | S=C=NCc1ccccc1 [BENZYL ISOTHIOCYANATE] | 32.2
47 | N#CSCc1ccccc1 [BENZYL THIOCYANATE] | 30.1
48 | CC/C=C/N=C=S [BUTENYL ISOTHIOCYANATE] | 20.6
49 | CCCCN=C=S [BUTYL ISOTHIOCYANATE] | 28.1
50 | CCN=C=S [ETHYL ISOTHIOCYANATE] | 66.9
51 | CC(C)/C=C/N=C=S [ISOAMYLENE ISOTHIOCYANATE] | 27.4
52 | CC(C)N=C=S [ISOPROPYL ISOTHIOCYANATE] | 22.6
53 | CC(C)CC(=O)N=C=S [ISOVALERYL ISOTHIOCYANATE] | 26.4
54 | CNC(=S)[S-].[Na+] [METAM SODIUM] | 72.2
55 | S=C=NCCc1ccccc1 [PHENETHYLISOTHIOCYANATE] | 60.8
56 | S=C=Nc1ccccc1 [PHENYLISOTHIOCYANATE] | 25.6
57 | CCCN=C=S [PROPYL ISOTHIOCYANATE] | 21.5

test system: Meloidogyne javanica; experiment: Nematicidal activity against Meloidogyne javanica (root-knot nematode) inoculated in cucumber plant assessed as reduction in Meloidogyne javanica (root-knot nematode)numbers at 0.5 to 2 ml/kg of soil dosed 7 days before planting by pot experiment; type: functional, organism-based; conditions: not given

Row | Compound | inhibition
58 | C=CC(=O)N=C=S [ACRYLOYL ISOTHIOCYANATE] | Active
59 | C=CCN=C=S [ALLYL ISOTHIOCYANATE] | Active
